Tested on: Wuhan E119V
Type: cell-based, influenza A virus H3N2
Conditions: read-out: IC50 (nM zanamivir) A/Wuhan/359/95 (second line)

**Q.** “3-Acetamido-2-(1-(((4-(aminomethyl)phenyl)carbamoyl)oxy)-2,3-dihydroxypropyl)-4-guanidino-3,4-dihydro-2H-pyran-6-carboxylic acid [compound 4]” was tested. Which IC50 did it give?
**A.** Its IC50 is 51 ± 5 nM.

Reference: patent US20130280204A1 (priority 2007, published 2013)
